Assay results reported in US20200129561A1, “DELIVERY OF AUTOLOGOUS CELLS COMPRISING MATRIX METALLOPROTEINASE FOR TREATMENT OF SCLERODERMA” (Intrexon Corporation, priority 2017, published 2020).

Assay: Nonclinical studies of veledimex control of target protein expression: tissue level of veledimex
Type: in vivo
Details: oral administration; other target proteins
Source text: MMP-1 expression levels were undetected after 10 days post-injection.

Structure (SMILES): CCC[C@@H](N(NC(=O)c1cccc(OC)c1CC)C(=O)c1cc(C)cc(C)c1)C(C)(C)C [veledimex, 3,5-dimethyl-benzoic acid (R)—N-(1-tert-butyl-butyl)-N′-(2-ethyl-3-methoxy-benzoyl)-hydrazide]
- levels of veledimex in the tissue at which maximal expression of target protein can be achieved: approximately 250 ng/mL
